Assay results taken from patent US6649605B2, “Treatment of tension-type headaches with NMDA receptor antagonists” (Head Explorer A/S, priority 1996, dated 2003).
Entries after “also recorded” stand apart in the source; their conditions may differ.

Legend:
tension-type headache = details: literature reports; cited from earlier work
migraine = details: literature reports; cited from earlier work
[1] = system: patients with chronic tension-type headache; assay: Open labeled pilot study of prophylactic Gabapentin; format: in vivo, human
Source text: Three patients with a diagnosis of chronic tension-type headache according to the International Headache society (Headache Classification Committee 1988) were recruited from the outpatient headache clinic at Glostrup Hospital. The patients were males with a mean age of 42 years (range. 35-49). The mean life time duration of chronic tension-type headache was 16 years (range 7-21). […] Exclusion criteria were: daily major medication (including prophylactic headache therapy); abuse of analgesics or alcohol; serious somatic or psychiatric diseases including depression.
Using an open labeled design, patients fulfilled a diagnostic headache diary during at least 4 weeks run-in period to ensure the diagnostic criteria. Thereafter, the patients received Gabapentin (Neurontin®) tablets, initially 300 mg (one tablet) per day on day one, increasing with 300 mg (1 tablet) per day to 900 mg (3 tablets) on day 3. The treatment period lasted […], and during this period patients were asked to continue with headache diaries, and record headache intensity, frequency, duration, any medication taken and any possible adverse events. At a follow, up visit at day 29-32, diaries were collected and any adverse events and evaluation of the treatment were recorded. Duo to the low number of patients, no statistical analysis were done. The primary efficacy parameters were headache intensity frequency and duration, and the mean values from the run-in period were compared to those obtained during the treatment period, […]

GABA A = details: cited from earlier work
GABA B = GABA B (Homo sapiens, UniProt Q9UBS5); details: cited from earlier work
[2] = system: alpha-2-subunit of a calcium channel; details: cited from earlier work
[3] = system: patients with chronic tension-type headache; assay: Open labeled pilot study of prophylactic Dextromethorphan; format: in vivo, human
Source text: Five patients with a diagnosis of chronic tension-type headache according to the International Headache Society (Headache Classification Committee 1988) were recruited from the outpatient headache clinic at Glostrup Hospital. There were 2 males and 3 females, and the mean age was 45.4 years (range 39-48). The mean life time duration of chronic tension-type headache was 12.2 years (range 4-25). One patient had coexisting but infrequent migraine. Exclusion criteria were; daily major medication (including prophylactic headache therapy); abuse of analgesics or alcohol; serious somatic or psychiatric diseases including depression.
Using an open labeled design, patients fulfilled a diagnostic headache diary during at least 4 weeks run-in period to ensure the diagnostic criteria. Thereafter, the patients received Dextromethorphan (Dexofan®) tablets at 30 mg each, three times per day. The treatment period lasted 4 weeks, and during this period patients were asked to continue Faith headache diaries: and record headache intensity, frequency, duration, any medication taken and any possible adverse events. At a follow up visit at day 29-32, diaries were collected and possible adverse events and evaluation of the treatment were recorded. Due to the restricted number of patients, no statistical analysis were done. The efficacy parameters were headache intensity, frequency and duration, and intake of simple analgesics. Mean values from the run-in period were compared to those obtained during the treatment period.

human volunteers = details: cited from earlier work
[4] = 0-10 VAS intensity scale, during active treatment, mean
[5] = 0-10 VAS intensity scale, run-in period, mean
[6] = open labeled, no statistical analysis

Sequence of GABA B (Q9UBS5 15-961 limits assumed): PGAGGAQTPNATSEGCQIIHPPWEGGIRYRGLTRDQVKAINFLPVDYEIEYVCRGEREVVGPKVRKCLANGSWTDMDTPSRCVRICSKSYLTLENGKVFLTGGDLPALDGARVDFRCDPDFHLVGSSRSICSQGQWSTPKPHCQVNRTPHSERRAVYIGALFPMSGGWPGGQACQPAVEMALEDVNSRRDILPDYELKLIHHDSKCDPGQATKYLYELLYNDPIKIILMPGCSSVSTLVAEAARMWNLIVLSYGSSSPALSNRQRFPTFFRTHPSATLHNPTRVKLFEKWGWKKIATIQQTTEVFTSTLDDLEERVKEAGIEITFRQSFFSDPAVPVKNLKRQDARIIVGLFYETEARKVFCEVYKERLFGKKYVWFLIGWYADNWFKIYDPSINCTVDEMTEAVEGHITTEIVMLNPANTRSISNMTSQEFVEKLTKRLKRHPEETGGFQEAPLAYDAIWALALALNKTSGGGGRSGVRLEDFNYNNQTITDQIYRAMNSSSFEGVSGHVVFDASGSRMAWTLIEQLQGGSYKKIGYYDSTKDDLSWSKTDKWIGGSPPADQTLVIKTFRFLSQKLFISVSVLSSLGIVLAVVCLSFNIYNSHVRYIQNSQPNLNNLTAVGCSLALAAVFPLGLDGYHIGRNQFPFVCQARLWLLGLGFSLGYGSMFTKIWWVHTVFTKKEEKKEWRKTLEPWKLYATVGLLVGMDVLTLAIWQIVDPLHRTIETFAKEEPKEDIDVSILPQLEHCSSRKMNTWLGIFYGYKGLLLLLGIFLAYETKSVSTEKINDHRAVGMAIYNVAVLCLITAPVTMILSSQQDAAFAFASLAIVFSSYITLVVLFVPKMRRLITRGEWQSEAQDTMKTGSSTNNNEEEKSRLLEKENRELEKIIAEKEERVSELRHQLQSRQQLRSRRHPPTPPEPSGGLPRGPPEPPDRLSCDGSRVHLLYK
Sequence of GABA B (O75899 42-941 partner): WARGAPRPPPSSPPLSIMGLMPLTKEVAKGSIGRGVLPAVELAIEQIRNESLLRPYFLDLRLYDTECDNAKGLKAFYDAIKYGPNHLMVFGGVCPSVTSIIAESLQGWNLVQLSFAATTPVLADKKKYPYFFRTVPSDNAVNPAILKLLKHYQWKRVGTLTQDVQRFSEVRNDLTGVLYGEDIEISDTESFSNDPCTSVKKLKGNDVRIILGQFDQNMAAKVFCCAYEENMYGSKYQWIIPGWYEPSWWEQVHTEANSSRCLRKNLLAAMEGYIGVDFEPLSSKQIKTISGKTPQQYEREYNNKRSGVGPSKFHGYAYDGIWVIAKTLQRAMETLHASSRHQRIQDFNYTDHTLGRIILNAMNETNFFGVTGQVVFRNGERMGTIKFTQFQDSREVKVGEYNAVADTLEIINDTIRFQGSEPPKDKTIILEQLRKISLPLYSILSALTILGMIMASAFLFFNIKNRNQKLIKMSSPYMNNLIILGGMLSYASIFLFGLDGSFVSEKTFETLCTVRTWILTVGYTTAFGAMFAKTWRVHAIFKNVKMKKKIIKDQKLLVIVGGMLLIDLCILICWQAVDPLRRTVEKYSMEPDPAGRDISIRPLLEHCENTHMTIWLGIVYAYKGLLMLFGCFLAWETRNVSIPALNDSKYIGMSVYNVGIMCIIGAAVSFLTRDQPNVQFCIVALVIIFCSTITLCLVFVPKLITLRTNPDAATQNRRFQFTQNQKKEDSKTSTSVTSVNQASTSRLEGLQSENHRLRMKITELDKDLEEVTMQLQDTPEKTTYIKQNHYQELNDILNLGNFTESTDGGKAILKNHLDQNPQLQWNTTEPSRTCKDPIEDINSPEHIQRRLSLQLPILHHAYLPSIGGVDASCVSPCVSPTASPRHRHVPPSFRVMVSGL

**Q.** Which “Effect in tension-type headache” value (tension-type headache) does the source give for `CNS(=O)(=O)Cc1ccc2[nH]cc(CCN(C)C)c2c1` [sumatriptan] here?
**A.** The value was “not effective to a clinically relevant extent”.

**Q.** And the Effect in migraine (migraine)?
**A.** Its Effect in migraine is “highly effective”.

**Q.** For `NCC1(CC(=O)O)CCCCC1` [Gabapentin], which “Headache intensity, active treatment” value [1, 4] is on record?
**A.** The value was 3.6.

**Q.** What about the “Headache intensity, run-in period” value [1, 5] of the same compound?
**A.** Its value is 5.5.

**Q.** And the “Effect in the individual patients” value ([1]; 3 patients)?
**A.** Its value is “One patient had excellent effect of Gabapentin with complete relief of the headache after 2 days treatment; also recorded: another patient had a moderate effect on headache intensity and frequency; also recorded: the third patient had no significant effect on any of efficacy parameters”.

**Q.** What about the Side effects ([1]; 3 patients) of the same compound?
**A.** The Side effects was “Those two subjects with good or excellent effect reported no side effects; also recorded: sedation, vertigo and slight nausea”.

**Q.** And the “Mean daily intake of analgesics, active treatment” value ([1]; active treatment)?
**A.** The value was 0.3 dose per day.

**Q.** And the “Frequency of headache, active treatment” value ([1]; active treatment period)?
**A.** Its value is 13 days per 4 weeks.

**Q.** What about the Overall prophylactic effect [1, 6] of the same compound?
**A.** The Overall prophylactic effect was “positive prophylactic effect”.

**Q.** What about the “Frequency of headache, run-in period” value ([1]; run-in period) of the same compound?
**A.** Its value is 23.5 days per 4 weeks.

**Q.** What about the “Mean daily intake of analgesics, run-in period” value ([1]; run-in period) of the same compound?
**A.** Its value is 1.1 dose per day.

**Q.** And the “Decrease of frequency of headache” value ([1]; treatment vs run-in period)?
**A.** Its value is 45%.

**Q.** And the “Decrease of mean daily intake of analgesics” value ([1]; treatment vs run-in period)?
**A.** Its value is 72%.

**Q.** What about the “Reduction of duration of the individual headache episode” value ([1]; treatment vs run-in period) of the same compound?
**A.** Its value is 8%.

**Q.** And the “Decrease of headache intensity” value ([1]; treatment vs run-in period, up to 900 mg per day, 3 patients)?
**A.** The value was 35%.

**Q.** What about the “Affinity for GABA A” value (GABA A) of the same compound?
**A.** The value was “fail to show affinity”.

**Q.** What about the “Affinity for GABA B” value (GABA B) of the same compound?
**A.** The value was “fail to show affinity”.

**Q.** And the “Binding affinity to the alpha-2-subunit of a calcium channel” value [2]?
**A.** The value was “showed binding affinity”.

**Q.** For `CCOC(=O)Nc1ccc(NCc2ccc(F)cc2)nc1N` [Flupirtin, ethyl 2-amino-6-(4-fluorobenylamino)-3-pyridylcarbamate], which “Effect in tension-type headache” value (tension-type headache) is on record?
**A.** Its value is “positive effects”.

**Q.** What does the source list for `COc1ccc2c(c1)[C@]13CCCC[C@@H]1[C@H](C2)N(C)CC3` [Dextromethorphan]?
**A.** Headache intensity, active treatment [3, 4]: 3.6; Headache intensity, run-in period [3, 5]: 4.4; Effect in the individual patients ([3]; 5 patients): Two patients reported a marked effect with considerable relief of headache intensity and duration within very few days of treatment; also recorded: one patient had a slight relief of headache intensity; also recorded: two patients reported no effect at all; Side effects ([3]; 5 patients): Four patients reported no side effects; also recorded: marked side effects with sedation was reported in one patient; Frequency of headache, active treatment ([3]; active treatment): 27 days per 4 weeks period; Mean intake of analgesics, active treatment ([3]; active treatment): 0.5 dose per day; Overall prophylactic effect [3, 6]: positive prophylactic effect; Frequency of headache, run-in period ([3]; run-in): 28 days per 4 weeks period; Mean intake of analgesics, run-in period ([3]; run-in period): 1.8 dose per day; Decrease of frequency of headache ([3]; treatment vs run-in period): 4%; Decrease of intake of analgesics ([3]; treatment vs run-in period): 72%; Reduction of duration of the individual headache episode ([3]; treatment vs run-in period): 11%; Reduction of headache intensity ([3]; treatment vs run-in period, 30 mg three times per day, 4 weeks, 5 patients): 18%; After sensation induced by repetitive stimuli (human volunteers): reduce the after sensation
